From PMC11546719, “Immune Modulatory Profile of the Pateamines PatA and Des-Methyl Des-Amino PatA” (International Journal of Molecular Sciences, 2024)
Read-outs that look alike come from different tables or passages of the source. Each block holds one molecule with its values, some of them ahead of it.

Key:
Human primary T cells = tested on: Human primary T cells; set-up: method as in PMID 36982945; conditions: summary table ref 11; cited from earlier work
Human primary B cells [1] = tested on: Human primary B cells; set-up: method as in PMID 36982945; conditions: summary table ref 11; cited from earlier work
M1 MdMs [2] = tested on: M1 MdMs; set-up: method as in PMID 36982945; conditions: summary table ref 11; cited from earlier work
M2 MdMs = tested on: M2 MdMs; set-up: method as in PMID 36982945; conditions: summary table ref 11; cited from earlier work
T cells = assay: Energy metabolism (Seahorse OCR/ECAR) in T cells; format: cell-based, human; conditions: 5 days, PatA, DMDA 0.25-0.5 nM, silvestrol 5 nM
Protocol: (§1) The determination of the energy metabolism was performed as described previously. Briefly, for the analysis of the extracellular acidification rate (ECAR) and the oxygen consumption rate (OCR) for human B cells, Tcells, M1 MdMs and M2 MdMs, the Seahorse XFe96 FluxPak (Agilent, Waldbronn, Germany) was used as recommended by the manufacturer. MdMs were polarized to M1 or M2 MdMs in the presence of PatA (0.5, 2.5, 5 nM), DMDA (0.5, 2.5, 5 nM) or vehicle (DMSO) for 48 h or 24 h, respectively. T cells were activated in the presence of PatA (0.25, 0.5 nM), DMDA (0.25, 0.5 nM), silvestrol or DMSO. B cells were activated in the presence of PatA (0.25, 0.5 nM), DMDA (0.25, 0.5 nM), silvestrol (5 nM) or rapamycin (10 ng/mL positive control). Cells were washed with Seahorse XF RPMI medium pH 7.4 (Agilent, Waldbronn, Germany) and OCR and ECAR were measured as octuplicates for a period of 160 min using the Seahorse XFe96 Analyzer (Agilent, Waldbronn, Germany) and analyzed by Wave Software 2.6.3.8 (Agilent, Waldbronn, Germany). The relative values were calculated by relating the OCR or ECAR values obtained after 50 min to the values of the vehicle control (not stimulated).

TK6 cells = assay: Micronuclei assay; format: cell-based, human; conditions: 4 h incubation then 44 h
Protocol: The In-Vitro Micronuclei Plus assay (Becton Dickinson, Heidelberg, Germany) was performed as described by the supplier. Briefly, 2 × 10^4 TK6 cells were incubated with increasing concentrations of PatA, DMDA and silvestrol for 4 h. The cells were washed with PBS and incubated in fresh medium (without test substance) for 44 h. The cells were centrifuged (300× g) for 5 min, the […] and placed on ice for 20 min. Then, 50 µL of Complete Nucleic Acid Dye A Solution was added. The plate was placed on ice and exposed to visible light for 30 min. The Nucleic Acid Dye A solution was removed and the cells were washed with 0.15 mL of cold 1x Buffer Solution. An amount of 100 µL Complete Lysis Solution 1 was added, followed by gently mixing of the plate for 5 s and incubation of 1 h in the dark at 37 °C. Then, 100 µL Complete Lysis Solution 2 was added and incubated for 30 min in the dark at room temperature. The cells were analyzed via flow cytometry with the MACSQuant 10 (Miltenyi GmbH, Bergisch Gladbach, Germany).

B cells = assay: Energy metabolism (Seahorse OCR/ECAR) in B cells; format: cell-based, human; conditions: 5 days, PatA, DMDA 0.25-0.5 nM, silvestrol 5 nM, rapamycin 10 ng/mL
Protocol: as §1

M1 MdMs [3] = tested on: M1 MdMs; set-up: method as in PMID 36982945; conditions: M1 MdMs ref 11; cited from earlier work
Calu-3 cell barrier = assay: Transport assay, Calu-3 cell barrier; format: in vitro ADME
Protocol: (§2) The transport assay was achieved as described previously. Briefly, 1 × 10^5 CaCo-2 or 5 × 10^4 Calu-3 cells in 300 µL medium were seeded on 24-well ThinCerts (pre-coated with FCS for 60 min) and in the lower compartment, 1 mL culture medium per well was added. The Caco-2 cell barrier was generated over 20 days and the Calu-3 barrier was generated over 14 days. DMDA (0 nM, 5 nM, 50 nM, 100 nM), PatA (0 nM, 5 nM, 50 nM, 100 nM), 200 µM famotidine, 200 µM lucifer yellow or 200 µM carbamazepine diluted in medium was added to the apical compartment and incubated for 4 h or 24 h. The medium from the basolateral and apical compartment was collected and stored at −20 °C and analyzed using LC-MS/MS. To obtain the transport rate, the drug amount in the basolateral compartment at 4 h or 24 h was related to the drug amount in the apical compartment (0 h).
(§3) The detailed method for the analysis of DMDA, PatA, carbamazepine and famotidine using LC-MS/MS is described in the Supplementary Materials.

Caco-2 cell barrier = assay: Transport assay, Caco-2 cell barrier; format: in vitro ADME
Protocol: as §2, §3

Human primary B cells [4] = assay: B cell activation with IL-21, sCD40L, CpG and anti-IgM; format: cell-based; conditions: activated B cells, 5 days
Protocol: B cells were activated as described by Khoenkhoen et al.. […].
Surface marker analysis was performed as described previously. Briefly, 1.5–2 × 10^5 cells of each sample were blocked with human FcR Blocking Reagent (15 min, 4 °C). […]. Afterwards, samples were stained with a mixture of different surface marker antibodies (15 min, 4 °C) and measured with MACSQuant® Analyzer 10 flow cytometer. For M1-/M2-MdMs anti-CD86, anti-CD14, anti-HLA-DR, anti-CD206, anti-CD80, anti-TREM2 and anti-CD163 were used. For T cells, anti-CD69, anti-CD54, anti-CD49a, anti-CD18, anti-CD134, anti-CD154, anti-CD3 and anti-CD25 were analyzed. For B cells, anti-CD27, anti-CD19 and anti-CD38 were applied. For T cell and B cell proliferation assay, freshly isolated T and B cells were stained with CTV and detected using flow cytometry. Naïve B cells were characterized as CD19^+CD27^lowCD38^med, memory B cells as CD19^+CD27^med CD38^low and plasma cells as CD27^+CD38^+ cells. M1 MdMs and M2 MdMs cell population was gated using FSC/SSC channel. T cells were gated as CD3^+CD25^+ positive cells. The geometric mean of the fluorescent intensity was calculated using FlowJo software v10 (Treestar, Ashland, […], USA). Fold induction of surface marker expression was calculated using the DMSO-treated cells as the control.
For determination of cytokine concentrations in the supernatant of humane immune cells, cytometric bead array (BD Biosciences, Heidelberg, Germany) for IL-10, IL-17, IL-8, IL-6, IFN-γ and CCL2 was used. For the detection of CCL18, CCL17, IgG, IgA and PGE2, an ELISA was performed. The cytometric bead arrays and the ELISAs were performed according to the protocol of the supplier.

[5] = 4 and 24 h, PatA, DMDA 5, 50, 100 nM, controls 200 µM

Molecule: CONC(=O)[C@H]1[C@@H](O)[C@@]2(O)c3c(OC)cc(OC)cc3O[C@@]2(c2ccc(OC)cc2)[C@@H]1c1ccccc1 [CR31-B (-)]
- Effect on the release of inflammatory markers, T Cells (Human primary T cells): IL-10↓, IL-17↓, IFN-γ↓
- Effect on the release of inflammatory markers, B Cells (Human primary B cells [1]): IgA↓, IgG↓
- Effect on the release of inflammatory markers, M1 MdM (M1 MdMs [2]): IL-6↓, IL-8↓, CCL2↓, CCL18↓
- Effect on the release of inflammatory markers, M2 MdM (M2 MdMs): TNF-α↑, CCL2↓, CCL17↓, CCL18↓,

Molecule: COC(=O)[C@H]1[C@@H](O)[C@@]2(O)c3c(OC)cc(O[C@@H]4O[C@@H]([C@H](O)CO)CO[C@H]4OC)cc3O[C@@]2(c2ccc(OC)cc2)[C@@H]1c1ccccc1 [Silvestrol, silvestrol]
- Energy metabolism: glycolysis (ECAR) and oxidative phosphorylation (OCR) (T cells): did not alter the energy metabolism
- Effect on the release of inflammatory markers, T Cells (Human primary T cells): IL-10↑, IFN-γ↑
- Effect on the release of inflammatory markers, B Cells (Human primary B cells [1]): IgA↓, IgG↓
- Genotoxic potential: micronuclei (clastogenic) and hypodiploid cells (aneugenic) (TK6 cells): showed no genotoxic effects
- Effect on the release of inflammatory markers, M1 MdM (M1 MdMs [2]): IL-6↓, IL-8↓, CCL2↓, TNF-α↑
- Energy metabolism: glycolysis (ECAR) and oxidative phosphorylation (OCR) (B cells): increased glycolysis and oxidative phosphorylation
- Effect on the release of inflammatory markers, M2 MdM (M2 MdMs): IL-8↓, CCL2↓,
- Energy metabolism: glycolysis and oxidative phosphorylation (M1 MdMs [3]): reduced glycolysis and oxidative phosphorylation

Molecule: COc1cc2c(c(OC)n1)[C@]1(O)[C@H](O)[C@H](CN(C)C)[C@@H](c3ccccc3)[C@]1(c1ccc(C#N)cc1)O2 [Zotatifin, zotatifin]
- Effect on the release of inflammatory markers, T Cells (Human primary T cells): IL-10↓, IL-17↓, IFN-γ↓
- Effect on the release of inflammatory markers, B Cells (Human primary B cells [1]): IgA↓, IgG↓
- Effect on the release of inflammatory markers, M1 MdM (M1 MdMs [2]): No effect
- Effect on the release of inflammatory markers, M2 MdM (M2 MdMs): IL-10↓, CCL18↓

- Permeability / transport rate across Calu-3 cell barrier (in words) (Calu-3 cell barrier; [5]): high
- Permeability / transport rate across Caco-2 cell barrier (in words) (Caco-2 cell barrier; [5]): high
Molecule: NC(=O)N1c2ccccc2C=Cc2ccccc21 [carbamazepine, reference compound]

- Permeability / transport rate across Calu-3 cell barrier (in words) (Calu-3 cell barrier; [5]): low permeability
- Permeability / transport rate across Caco-2 cell barrier (in words) (Caco-2 cell barrier; [5]): low permeability
Molecule: NC(N)=Nc1nc(CSCCC(N)=NS(N)(=O)=O)cs1 [famotidine, reference compound]

Molecule: COS(C)(=O)=O [methylmethansulfonat (MMS), methylmethansulfonat, reference compound]
- Genotoxic potential: micronuclei (clastogenic) and hypodiploid cells (aneugenic) (TK6 cells): significant increase in micronuclei and hypodiploid cells

Molecule: CO[C@H]1C[C@@H]2CC[C@@H](C)[C@@](O)(O2)C(=O)C(=O)N2CCCC[C@H]2C(=O)O[C@H]([C@H](C)C[C@@H]2CC[C@@H](O)[C@H](OC)C2)CC(=O)[C@H](C)/C=C(\C)[C@@H](O)[C@@H](OC)C(=O)[C@H](C)C[C@H](C)/C=C/C=C/C=C/1C [rapamycin, reference compound]
- B cell activation (formation of plasma cells, proliferation, release of IgGs) (Human primary B cells [4]): prevented B cell activation
- Cell viability (zombie staining) (Human primary B cells [4]): did not reduce cell viability

- Permeability / transport rate across Calu-3 cell barrier (in words) (Calu-3 cell barrier): low permeability
- Permeability / transport rate across Caco-2 cell barrier (in words) (Caco-2 cell barrier; Caco-2): low permeability
Molecule: lucifer yellow [reference compound]
